From the NIST ThermoML archive (doi:10.1016/j.jct.2008.01.018)

Test: refractive index (Na D-line) (dimensionless); mn = molality of the nth substance listed, in mol/kg
Conditions: 298.15 K, 101 kPa, Liquid, Standard Abbe refractometry

O=P([O-])(O)O.[Na+] [sodium dihydrogen phosphate] + O
Conditions	refractive index
m1 = 0.0207	1.3331
m1 = 0.0415	1.3334
m1 = 0.0697	1.3338
m1 = 0.1051	1.3342
m1 = 0.1397	1.3351
m1 = 0.1901	1.3357
m1 = 0.2357	1.3363
m1 = 0.2947	1.3373
m1 = 0.3516	1.3382
m1 = 0.433	1.3393
m1 = 0.5113	1.3405
m1 = 0.5842	1.3416
m1 = 0.653	1.3425
m1 = 0.6999	1.3432
m1 = 0.7919	1.3442
m1 = 0.9206	1.3459
m1 = 1.175	1.3491
m1 = 1.18	1.3491
m1 = 1.447	1.3524
m1 = 1.794	1.3565
m1 = 2.079	1.3597
m1 = 2.396	1.3629
m1 = 2.398	1.3627
